Here are results for six compounds from patent US10011573B2, “Human androgen receptor DNA-binding domain (DBD) compounds as therapeutics and methods for their use” (The University of British Columbia, priority 2014, dated 2018).

The target of one test is T1, androgen receptor (AR) (Homo sapiens, UniProt P10275, T878A).
T1 sequence (P10275 1-920 T878A): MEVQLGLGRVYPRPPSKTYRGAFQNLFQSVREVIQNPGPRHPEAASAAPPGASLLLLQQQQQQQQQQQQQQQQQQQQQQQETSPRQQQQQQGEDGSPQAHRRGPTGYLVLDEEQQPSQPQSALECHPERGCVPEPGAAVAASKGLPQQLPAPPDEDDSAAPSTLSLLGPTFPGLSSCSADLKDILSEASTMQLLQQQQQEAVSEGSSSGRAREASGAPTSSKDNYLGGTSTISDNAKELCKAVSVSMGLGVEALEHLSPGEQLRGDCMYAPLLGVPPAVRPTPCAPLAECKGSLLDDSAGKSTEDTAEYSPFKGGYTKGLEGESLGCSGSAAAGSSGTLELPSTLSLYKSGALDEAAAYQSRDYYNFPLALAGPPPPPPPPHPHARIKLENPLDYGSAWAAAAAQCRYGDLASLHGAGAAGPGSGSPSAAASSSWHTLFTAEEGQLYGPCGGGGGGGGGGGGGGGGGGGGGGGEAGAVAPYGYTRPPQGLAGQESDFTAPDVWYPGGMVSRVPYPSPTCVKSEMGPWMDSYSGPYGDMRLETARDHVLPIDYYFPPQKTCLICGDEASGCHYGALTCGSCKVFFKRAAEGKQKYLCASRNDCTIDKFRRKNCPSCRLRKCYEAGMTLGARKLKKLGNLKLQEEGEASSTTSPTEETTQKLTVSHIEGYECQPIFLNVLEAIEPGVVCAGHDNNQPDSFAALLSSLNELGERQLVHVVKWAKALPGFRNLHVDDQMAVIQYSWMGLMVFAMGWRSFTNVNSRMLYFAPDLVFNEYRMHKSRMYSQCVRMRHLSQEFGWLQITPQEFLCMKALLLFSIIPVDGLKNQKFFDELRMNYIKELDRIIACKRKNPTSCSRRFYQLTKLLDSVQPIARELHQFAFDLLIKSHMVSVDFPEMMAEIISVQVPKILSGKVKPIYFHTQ
The experiment in a line: eGFP cellular AR transcription assay (LNCaP eGFP cells, LN-ARR2PB-eGFP). The conditions noted are these: for anti-AR activity (AR transcriptional inhibition) in words: LNCaP (T877A AR); for partial agonistic effect: LNCaP eGFP cells.

For the next test, the target named is AR DBD (Homo sapiens, UniProt P10275).
Test [1] deals with T2, AR hormone binding site (recombinant wild type LBD) (Rattus norvegicus, UniProt P15207).
T2 construct: displace DHT from the ABS site of recombinant wild type LBD
T2 sequence (P15207 651-882 limits assumed): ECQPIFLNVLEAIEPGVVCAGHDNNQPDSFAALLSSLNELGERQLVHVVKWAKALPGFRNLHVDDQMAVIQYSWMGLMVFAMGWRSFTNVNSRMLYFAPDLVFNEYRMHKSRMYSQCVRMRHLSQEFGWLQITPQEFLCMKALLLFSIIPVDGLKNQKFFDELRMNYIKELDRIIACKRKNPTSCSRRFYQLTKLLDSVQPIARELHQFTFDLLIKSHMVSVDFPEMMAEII
The experiment in a line: Androgen displacement assay (Polar Screen Androgen Receptor Competitor Green Assay Kit). The conditions noted are these: fluorescence polarization. As to the method:
5. Androgen displacement assay: The androgen displacement was assessed with the Polar Screen Androgen Receptor Competitor Green Assay Kit as per the instructions of the manufacturer (Lack, Axerio-Cilies et al. 2011).
The ability of the above chemicals to displace DHT from the ABS site of recombinant wild type LBD was measured using a fluorescent polarization assay (PolarScreen™, Life Technologies) at various concentrations.
A general note: Polarisation of emitted light reports the rotation of a fluorescent probe.

Test [2] deals with PSA. The test is described as follows: Prostate-specific antigen (PSA) assay, secreted PSA from the eGFP assay plates. The class given is cell-based, human. As to conditions: Homo sapiens. As to the method:
3. Prostate-specific antigen (PSA) assay: The evaluation of PSA levels secreted into the media was performed in parallel to the eGFP assay using the same plates. After cells were incubated for 3 days, 150 μl of the media was taken from each well, and added to 150 μl of PBS.

The next test has as its target T3, full-length human AR (Homo sapiens, UniProt P10275).
T3 construct: expressed in transfected cells; host or cells: PC3 (AR-negative human prostate cancer cells)
T3 sequence (P10275 1-920): T1 sequence (P10275 1-920 T878A) with A878T
The experiment in a line: ARR3tk-luciferase reporter assay in PC3 cells, wild-type AR. The class given is cell-based. As to the method:
(§1) 9. Transient Transfection: The PC3/MCF7 cells were seeded into a 96-well plate (2,000 cells/well). After 24 hrs, the wild-type AR (50 ng/well)/AR mutants and AR3TK-luciferase plasmids (1:3) were co-transfected into PC3 cells or ERE-luciferase (50 ng/well) was transfected into MCF7 cells using transfection reagent TT20. 24 hrs after the transfection, the cells were treated with the compounds at various concentrations. And 24 hrs later, the cells were lysed and the reading was taken using a luminometer.

The target of another test is T4, T877A-AR mutant (Homo sapiens, UniProt P10275, T878A).
T4 construct: expressed in transfected cells; host or cells: PC3
The test is described as follows: Luciferase reporter assay in PC3 cells, T877A-AR. The class given is cell-based. As to conditions: presence and absence of R1881. As to the method:
as §1
On the technique in general: Reporter assays use an easily measured gene product as a stand-in for the process of interest.

A further test relates to endogenous wild type AR. The experiment in a line: ARR3tk-luciferase assay in R1-AD1 cells. The class given is cell-based, human. The conditions noted are these: 0.1 nM R1881.
Test [3] addresses T5, AR(1-653) truncation mutant (Homo sapiens, UniProt P10275).
T5 construct: host or cells: PC3 co-transfected with ARR3tk-luciferase
As to conditions: 25 μM, PC3 cells, ARR3tk-luciferase; cited from earlier work.

The subject of test [4] is FKBP5. The experiment in a line: Western blot FKBP5 protein in R1-AD1 cells. The class given is cell-based, human. As to the method: (§2) Cell lysates (40 μl) from luciferase assays (96-well plate) were separated on a 10% SDS-polyacrylamide mini gel. Protein was transferred to methanol-charged PVDF membranes and probed with anti-AR441 (mouse, Sigma™) monoclonal primary antibody. Blots were also probed with polyclonal anti-actin (rabbit, Sigma™) to show equal loading and polyclonal anti-PARP/anti-cleaved PARP (rabbit, Sigma™) to test for induction of apoptosis. Lysates from CWR-R1 cells were additionally probed with polyclonal anti-FKBP5 (rabbit, Sigma™) following 2 days of incubation with compounds.
Background: A western blot detects proteins with antibodies after separation by electrophoresis.

For a further test, the target named is T6, ER-α (Homo sapiens, UniProt P03372).
T6 construct: endogenous in cells; host or cells: MCF-7 with ERE-luciferase reporter
The test is described as follows: Estrogen-response element-luciferase assay in MCF-7 cells. The class given is cell-based. As to the method:
as §1

In test [5] the test system is FKBP5. The experiment in a line: Western blot FKBP5 protein in R1-D567 cells. The class given is cell-based, human. As to the method:
as §2

Test [6] concerns PSA. The experiment in a line: PSA measurements, LNCaP cells, 1 nM R1881, 2 days. The class given is cell-based, human. As to the method: Following the incubation period, 150 μl of the media was taken from each well, and PSA levels were quantified using a Cobas e411 analyzer (Roche Applied Science™) according to the manufacturer's instructions. The same instrument was used to analyze serum PSA from mice during the in vivo analysis.

[7] abbreviates: eGFP IC50, LNCaP eGFP cells, 0.1 nM R1881.

The IC50 is the point on the concentration scale where inhibition reaches its midpoint. A word on the inhibition: it is the share of the control response that was lost under treatment.

Each structure is given as a SMILES string. Numbering of substitutions follows the chain as printed.

T6 sequence (P03372 whole entry): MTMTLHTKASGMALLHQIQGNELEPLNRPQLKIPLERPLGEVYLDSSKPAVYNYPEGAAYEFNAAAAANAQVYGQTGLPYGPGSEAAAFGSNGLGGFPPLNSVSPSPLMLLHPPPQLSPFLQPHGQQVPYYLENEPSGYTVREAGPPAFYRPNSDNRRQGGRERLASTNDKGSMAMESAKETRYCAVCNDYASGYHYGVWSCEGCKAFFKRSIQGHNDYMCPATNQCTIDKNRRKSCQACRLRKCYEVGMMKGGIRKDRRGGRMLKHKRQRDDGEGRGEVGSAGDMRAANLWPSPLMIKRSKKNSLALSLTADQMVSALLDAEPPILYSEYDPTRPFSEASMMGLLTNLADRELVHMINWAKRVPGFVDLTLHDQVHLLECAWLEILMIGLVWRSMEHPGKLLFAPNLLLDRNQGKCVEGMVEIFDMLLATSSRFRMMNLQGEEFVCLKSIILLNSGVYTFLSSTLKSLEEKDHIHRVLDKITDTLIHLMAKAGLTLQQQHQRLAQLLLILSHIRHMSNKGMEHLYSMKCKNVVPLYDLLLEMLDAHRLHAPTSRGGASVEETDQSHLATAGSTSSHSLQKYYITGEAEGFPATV

On to `COc1c(Cl)cc(-c2csc(N3CCOCC3)n2)cc1Cl` [Compound 14288], for which, at androgen receptor (AR), the “% Inhibition (3 μM)” value is 35.89%. The “digestion of AR DBD by trypsin in presence of compound” value on AR DBD was “not digested”.
On to `COc1c(F)cccc1-c1csc(N2CCOCC2)n1` [Compound 14368], for which the IC50 in [1] turned out to be 31.3 µM; in the test on PSA [2] (Series 1), 130 nM; against androgen receptor (AR) (eGFP IC50 (μM), Series 1) it was 0.03 µM; against androgen receptor (AR) (setting [7]), 0.035 µM. For the same compound, on full-length human AR, the “AR transcription, wild type AR, presence of R1881” value is given as “inhibited by 14368 in a dose response manner”. On full-length human AR, the “AR transcriptional activity, wild type AR, absence of androgen” value is “only a basal level of transcriptional activity”. The “concentration inducing transcriptional activation of T877A AR mutant” value at T877A-AR mutant was “higher than 0.4 μM”. Besides, the “agonistic effect at high concentrations” value in the test with endogenous wild type AR is “not observed”. In addition, at androgen receptor (AR) (LNCaP eGFP cells without R1881), the “AR transcriptional activity in the absence of R1881” value was “vigorously enhance AR transcriptional activity”.
Take `c1cc(-c2csc(N3CCOCC3)n2)cs1` [Compound 14404, 4-(4-(thiophen-3-yl)thiazol-2-yl)morpholine]: the “Androgen Displacement IC50” value in test [1] was “No displacement”. The IC50 with PSA [2] (Series 1) turned out to be 220 nM; against androgen receptor (AR) (eGFP IC50 (μM), Series 1), 0.26 µM; at androgen receptor (AR) (setting [7]), 0.27 ± 0.02 µM. The “anti-AR activity (AR transcriptional inhibition) in words” value at androgen receptor (AR) is listed as “maintained good potency”. For the same compound, the partial agonistic effect result at androgen receptor (AR) is “no undesired partial agonistic effect”.
Regarding `c1cncc(-c2csc(N3CCOCC3)n2)c1` [Compound 14439], the “Androgen Displacement IC50” value in test [1] is recorded as “low displacement”. At androgen receptor (AR), the “anti-AR activity (AR transcriptional inhibition) in words” value is “maintained good potency” and the partial agonistic effect result is “no undesired partial agonistic effect”. In addition, at androgen receptor (AR) (LNCaP, read-out: % Inhibition (3 μM)), the inhibition at 3 µM turned out to be 81%. The compound also came in with an IC50 against androgen receptor (AR) (setting [7]) of 0.16 ± 0.03 µM.
Regarding `CC(C)(c1ccc(OCC(O)CO)cc1)c1ccc(OCC(O)CCl)cc1` (stereo not drawn) [EPI-001], in test [3], the “inhibition of AR(1-653) truncation mutant” value is about 80%.
For the compound `CNC(=O)c1ccc(N2C(=S)N(c3ccc(C#N)c(C(F)(F)F)c3)C(=O)C2(C)C)cc1F` [enzalutamide, reference compound], in the test on FKBP5 [4], the “FKBP5 protein expression, R1-AD1 cells” value was “only affected R1-AD1 cells”. In addition, the IC50 with PSA [2] (LNCaP eGFP cells, R1881, secreted PSA) came to 120 nM. Further, the “effect on ER transcriptional activity” value at ER-α is “considerable cross-reactivity”. Besides, the “FKBP5 protein expression, R1-D567 cells” value in the test on FKBP5 [5] was “only affected R1-AD1 cells”. For the same compound, the “IC50 secreted PSA” value in the test with PSA [6] is recorded as “sub-micromolar”.
